Measurements reported in the supplement of paper PMC10307832.

Assays:
Assay in all cases: relative viability (nuclei count vs DMSO), 5 days (fraction); higher = more cells survive
[1] = compound: COc1cc2c(Oc3ccc4[nH]c(C)cc4c3F)ncnc2cc1OCCCN1CCCC1 [Cediranib] + O=C(CCCCCCC(=O)Nc1ccccc1)NO [Vorinostat] (partner 1 µM)
Summary of the method: (§1)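 Lung cancer cell lines were pin-tool dosed in 1536-well plates on the day after seeding, with either a lone drug or a fixed anchor-drug dose plus five library-drug doses (not always all listed) in √10 steps. Nuclei were counted on 4× images after 5 days. Relative viability is the ratio of treated-well to vehicle-well nuclei counts, with each value a median of duplicate plates.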

[2] = compound: COc1cc2c(Oc3ccc4[nH]c(C)cc4c3F)ncnc2cc1OCCCN1CCCC1 [Cediranib] + C[C@]1(O)C[C@@H](c2nc(-c3ccc4ccc(-c5ccccc5)nc4c3)c3c(N)nccn32)C1 [Linsitinib] (partner 1 µM)
Summary of the method: as §1

[3] = compound: O=C(C[C@H]1NCCC[C@@H]1O)Cn1cnc2cc(Br)c(Cl)cc2c1=O (racemic) [Halofuginone] + CCNC(=O)c1noc(-c2cc(C(C)C)c(O)cc2O)c1-c1ccc(CN2CCOCC2)cc1 [Luminespib] (partner 0.01 µM)
Summary of the method: as §1

[4] = compound: COc1cc2c(Oc3ccc4[nH]c(C)cc4c3F)ncnc2cc1OCCCN1CCCC1 [Cediranib] + Cc1cc(Nc2cc(N3CCN(C)CC3)nc(Sc3ccc(NC(=O)C4CC4)cc3)n2)n[nH]1 [Tozasertib] (partner 0.1 µM)
Summary of the method: as §1

Cell Line | relative viability ([1]; first compound 0.04 µM) | relative viability ([1]; first compound 0.1265 µM) | relative viability ([1]; first compound 0.4 µM) | relative viability ([1]; first compound 1.265 µM) | relative viability ([1]; first compound 4 µM) | relative viability ([2]; first compound 0.04 µM) | relative viability ([2]; first compound 0.1265 µM) | relative viability ([2]; first compound 0.4 µM) | relative viability ([2]; first compound 1.265 µM) | relative viability ([2]; first compound 4 µM) | relative viability ([3]; first compound 0.001 µM) | relative viability ([3]; first compound 0.003162 µM) | relative viability ([3]; first compound 0.01 µM) | relative viability ([3]; first compound 0.03162 µM) | relative viability ([3]; first compound 0.1 µM) | relative viability ([4]; first compound 0.04 µM) | relative viability ([4]; first compound 0.1265 µM) | relative viability ([4]; first compound 0.4 µM) | relative viability ([4]; first compound 1.265 µM) | relative viability ([4]; first compound 4 µM)
NCI-H650 | 0.363 | 0.319 | 0.526 | 0.356 | 0.454 | 0.792 | 0.681 | 0.807 | 0.706 | 0.964 | 0.793 | 0.738 | 0.822 | 0.667 | 0.59 | 0.739 | 0.563 | 0.709 | 0.774 | 0.707
NCI-H1915 | 0.5 | 0.426 | 0.485 | 0.501 | 0.544 | 1.09 | 1.01 | 1.07 | 1.04 | 1.16 | 0.787 | 0.826 | 0.794 | 0.719 | 0.55 | 0.467 | 0.384 | 0.428 | 0.46 | 0.42
NCI-H2009 | 0.736 | 0.672 | 0.715 | 0.736 | 0.717 | 1.2 | 1.18 | 1.18 | 1.19 | 1.16 | 1.07 | 1.04 | 1.03 | 0.904 | 0.692 | 0.775 | 0.763 | 0.703 | 0.732 | 0.795
NCI-H1651 | 0.518 | 0.591 | 0.58 | 0.53 | 0.555 | 0.888 | 1.11 | 0.991 | 0.95 | 1.04 | 0.7 | 0.797 | 0.802 | 0.65 | 0.427 | 0.619 | 0.696 | 0.596 | 0.676 | 0.815
